We go through 13 molecules from PubChem BioAssay (NCI).

Some test systems named below: SK-MEL-2 melanoma; HOP-62 NSCLC; SF-268 CNS; NCI-H522 lung; SK-MEL-28 melanoma; MOLT-4 leukemia; NCI-H23 lung; SW-620 colon; RXF 393 renal; HCC-2998 colon.
Experiment in all cases: DTP human tumour cell line panel, 48 h

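A five-concentration, 48-hour dose response in 96-well plates underlies each endpoint, interpolated linearly between surrounding concentrations. The concentration for 50% growth inhibition is given as GI50. TGI denotes the concentration required for complete inhibition of growth.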

`Cc1nc(N=C(N)N)nc2ccc3ccccc3c12`: the GI50 – broadly, the concentration that inhibits growth by half – was 1.72 µM with SK-MEL-2 melanoma; 1.25 µM in the assay with HOP-62 NSCLC; 0.505 µM in the assay on SF-268 CNS; 1.04 µM in the assay with NCI-H522 lung; 1.53 µM in the assay on SK-MEL-28 melanoma; 1.37 µM in the assay on MOLT-4 leukemia. Also, the figures for the GI50 with NCI-H23 lung and with SW-620 colon were 2.33 µM and 0.897 µM, respectively. For the same molecule, the total growth inhibition concentration (TGI) – broadly, the concentration giving total growth inhibition – in the assay on SK-MEL-2 melanoma came to 3.37 µM; in the assay with HOP-62 NSCLC, 3.6 µM; in the assay on SF-268 CNS, 2.55 µM; in the assay on NCI-H522 lung it was 2.5 µM; with SK-MEL-28 melanoma, 3.71 µM; in the assay on MOLT-4 leukemia, 3.62 µM. Also, the concentration for total growth inhibition (TGI) in the assay on NCI-H23 lung amounted to 7.31 µM; with SW-620 colon it was 10.3 µM.

As for `CC1(C)CC[C@]2(C(=O)O)CCC3(C)C(=CCC4[C@@]5(C)CC[C@H](OC6OCC(O)C(O)C6OC6OC(CO)C(O)C(O)C6O)C(C)(C)C5CC[C@]43C)C2C1` (stereo not given in full), the TGI in the assay with HOP-62 NSCLC turned out to be 4.16 µM; in the assay with SF-268 CNS it was 4.61 µM; in the assay with SK-MEL-28 melanoma it was 4.39 µM; in the assay with MOLT-4 leukemia, 7.95 µM; with NCI-H23 lung it was 4.2 µM; in the assay with RXF 393 renal it was 3.53 µM. The results for the TGI in the assay with SW-620 colon and in the assay on HCC-2998 colon were 4.03 µM and 3.16 µM, respectively.

Regarding `COc1ccc(C(=O)Nc2ccccc2C#N)cc1`, the TGI in the assay on SK-MEL-2 melanoma, in the assay with HOP-62 NSCLC, in the assay with SF-268 CNS, in the assay on SK-MEL-28 melanoma, with NCI-H23 lung and in the assay with RXF 393 renal was greater than 100 µM throughout. For the same molecule, the TGI with SW-620 colon was greater than 100 µM.

As to `COC(=O)[C@@]12C3=NO[C@]1(C(=O)OC)C(O[Si](C)(C)C(C)(C)C)C1OC(C)(C)OC1[C@@H]2[C@@H](OCc1ccccc1)CC3` (stereo not given in full), the TGI in the assay on SK-MEL-2 melanoma, in the assay on SK-MEL-28 melanoma, with MOLT-4 leukemia, with NCI-H23 lung, in the assay on SW-620 colon and in the assay with HCC-2998 colon was greater than 100 µM in each case.

For the molecule `Cc1cc2c(C)nn(Cc3ccc(Cl)cc3Cl)c2c(C#N)c1C`, the TGI in the assay with SK-MEL-2 melanoma, in the assay with HOP-62 NSCLC, with SF-268 CNS, in the assay with SK-MEL-28 melanoma, in the assay with MOLT-4 leukemia and in the assay with NCI-H23 lung was greater than 100 µM each time. Moreover, the TGI in the assay with RXF 393 renal, in the assay with SW-620 colon and in the assay with HCC-2998 colon was greater than 100 µM throughout.

For `Cc1cc(C)c2c(c1C)CN1CN2Cc2c(C)c(C)cc(C)c21`, the TGI in the assay with HOP-62 NSCLC, in the assay on SF-268 CNS, in the assay on NCI-H522 lung, in the assay on SK-MEL-28 melanoma, in the assay with MOLT-4 leukemia and in the assay on NCI-H23 lung was greater than 100 µM each time. In addition, the TGI is 93.8 µM with RXF 393 renal and greater than 100 µM with SW-620 colon.

Regarding `O=C(Nc1ccc(Cl)cc1)C(=O)C1=C(O)c2ccccc2OC1`, the TGI in the assay on SK-MEL-2 melanoma, with SF-268 CNS, with NCI-H522 lung, in the assay with SK-MEL-28 melanoma, in the assay with MOLT-4 leukemia and in the assay with NCI-H23 lung was greater than 100 µM each time. In addition, the concentration for total growth inhibition (TGI) in the assay on SW-620 colon and in the assay with HCC-2998 colon was greater than 100 µM each time.

For the molecule `Nc1ncn([C@@H]2C=C(CO)C(O)C2O)c(=O)n1` (stereo not given in full), the total growth inhibition concentration (TGI) with SK-MEL-2 melanoma, in the assay with HOP-62 NSCLC, in the assay with SF-268 CNS, with NCI-H522 lung, in the assay with SK-MEL-28 melanoma and in the assay with MOLT-4 leukemia was greater than 100 µM throughout. Also, the total growth inhibition concentration (TGI) with NCI-H23 lung, with SW-620 colon and in the assay on HCC-2998 colon was greater than 100 µM in each case.

Take `CC1(C)CC(C2CC(C)(C)CC(C)(C)[C@H]2O)[C@@H](O)C(C)(C)C1` (stereo not given in full): the total growth inhibition concentration (TGI) with SF-268 CNS, with NCI-H522 lung, in the assay with SK-MEL-28 melanoma, in the assay on MOLT-4 leukemia, in the assay on NCI-H23 lung and in the assay with SW-620 colon was greater than 100 µM throughout. This molecule also displayed a TGI in the assay on HCC-2998 colon greater than 100 µM.

Turning to `CCCCCNC(=O)C1C(=O)N(CCCCC)C(=O)/C1=N\N` (stereo not given), the TGI was 86.2 µM in the assay with SK-MEL-2 melanoma; greater than 100 µM with HOP-62 NSCLC; greater than 100 µM with SF-268 CNS; greater than 100 µM with NCI-H522 lung; greater than 100 µM in the assay on SK-MEL-28 melanoma; greater than 100 µM in the assay on MOLT-4 leukemia. Besides, the TGI in the assay with NCI-H23 lung, in the assay with SW-620 colon and in the assay with HCC-2998 colon was greater than 100 µM each time.

For the molecule `COc1cccc(C2C3=C(COC3=O)N(CCO)c3cc4c(cc32)CCC4)c1` (stereo not given), the GI50 in the assay on SK-MEL-2 melanoma was 0.0255 µM; in the assay with HOP-62 NSCLC it was 0.147 µM; in the assay with SF-268 CNS, 0.0731 µM; in the assay with NCI-H522 lung, 0.00644 µM; with SK-MEL-28 melanoma, 13.4 µM; in the assay with MOLT-4 leukemia, 0.162 µM. The GI50 was 0.0604 µM with NCI-H23 lung, 0.0252 µM in the assay on SW-620 colon and 0.0795 µM in the assay on HCC-2998 colon. Further, the TGI is 0.239 µM in the assay on SK-MEL-2 melanoma; greater than 16 µM with HOP-62 NSCLC; 5.93 µM with SF-268 CNS; 0.0165 µM in the assay on NCI-H522 lung; greater than 50 µM with SK-MEL-28 melanoma; 1.94 µM in the assay with MOLT-4 leukemia. Also, the TGI in the assay on NCI-H23 lung is 4.02 µM; in the assay on SW-620 colon it was greater than 50 µM; with HCC-2998 colon, 1.31 µM.

As to `CCOC(=O)C1=C(O)CSC1=Nc1ccc(N=C2SCC(O)=C2C(=O)OCC)cc1`, the TGI in the assay with SK-MEL-2 melanoma amounted to 33.7 µM; in the assay on HOP-62 NSCLC it was 65.9 µM; in the assay with SF-268 CNS, 52.4 µM; in the assay with NCI-H522 lung it was 32.3 µM; with SK-MEL-28 melanoma, 40.8 µM; in the assay with RXF 393 renal it was 32.6 µM. Besides, the TGI with SW-620 colon was 66.6 µM.

On to `OCCC#Cc1ccccc1C#Cc1ccccc1`, for which the GI50 in the assay on SK-MEL-2 melanoma was 40.6 µM; with HOP-62 NSCLC it was 18.7 µM; in the assay with SF-268 CNS, 16.5 µM; in the assay on NCI-H522 lung it was 32.1 µM; with SK-MEL-28 melanoma, 21.7 µM; with MOLT-4 leukemia, 9.84 µM. Further, the values for the GI50 with NCI-H23 lung, in the assay with SW-620 colon and with HCC-2998 colon were 18.2 µM, 13.4 µM and 19.1 µM, respectively. In addition, the TGI with SK-MEL-2 melanoma is greater than 100 µM; in the assay on HOP-62 NSCLC it was 33.9 µM; with SF-268 CNS it was 33.9 µM; with NCI-H522 lung, greater than 100 µM; in the assay on SK-MEL-28 melanoma, 60.9 µM; with MOLT-4 leukemia it was 51.9 µM. For the same molecule, the total growth inhibition concentration (TGI) in the assay with NCI-H23 lung is 39.9 µM; with SW-620 colon, 28.2 µM; in the assay on HCC-2998 colon it was 45 µM.
